Drawing on ChEMBL document CHEMBL1144482, “Design, synthesis, biochemical evaluation and antimycobacterial action of phosphonate inhibitors of antigen 85C, a crucial enzyme involved in biosynthesis of the mycobacterial cell wall” (Eur J Med Chem, 2007), this text covers IC50, MIC and Activity for 14 molecules.

In assay [1] the target is Diacylglycerol acyltransferase/mycolyltransferase Ag85C (Mycobacterium tuberculosis, UniProt P9WQN9). Nature of the assay: Inhibition of Mycobacterium tuberculosis recombinant antigen 85C mycolyltransferase.
Sequence of Diacylglycerol acyltransferase/mycolyltransferase Ag85C (P9WQN9 whole entry): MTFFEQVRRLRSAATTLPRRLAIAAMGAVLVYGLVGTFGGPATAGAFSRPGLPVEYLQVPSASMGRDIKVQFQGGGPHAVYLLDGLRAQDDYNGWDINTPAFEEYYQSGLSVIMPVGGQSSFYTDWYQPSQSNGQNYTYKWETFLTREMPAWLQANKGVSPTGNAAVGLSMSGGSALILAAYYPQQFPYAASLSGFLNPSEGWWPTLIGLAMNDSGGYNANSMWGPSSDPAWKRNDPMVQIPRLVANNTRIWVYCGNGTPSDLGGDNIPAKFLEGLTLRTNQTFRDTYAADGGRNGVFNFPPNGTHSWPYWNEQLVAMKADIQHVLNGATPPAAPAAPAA
Assay [2] relates to Mycobacterium avium. Nature of the assay: Growth inhibition of Mycobacterium avium 2447. The assay is classed as functional.

≈ marks a conversion by molar mass, not a printed value. Calls of active or inactive are those of the source. The calls are words filed in the database; no cut-off is given here.

Turning to `CCCCCCP(=O)(OCC)OCc1ccccc1Oc1ccccc1` (stereo not drawn), the IC50 in assay [1] amounted to 42.6 µM. Inhibition of growth in assay [2] (MIC) required 260 µg/mL (≈ 690 µM).
As to `CC[C@H]1OC(=O)[C@H](C)[C@@H](O[C@H]2C[C@@](C)(OC)[C@@H](O)[C@H](C)O2)[C@H](C)[C@@H](O[C@@H]2O[C@H](C)C[C@H](N(C)C)[C@H]2O)[C@](C)(OC)C[C@@H](C)C(=O)[C@H](C)[C@@H](O)[C@]1(C)O` [CLARITHROMYCIN], in assay [2], 0.2 µg/mL (≈ 0.267 µM) was the least that counted as inhibitory (MIC).
On to `CCOP(=O)(O)CCc1ccccc1`, for which, in assay [1], the IC50 came to 225 µM.
On to `CCCCCCCP(=O)(OCC)OCc1ccccc1Oc1ccccc1` (stereo not drawn), for which the IC50 in assay [1] worked out at 21 µM. In assay [2], the minimal inhibitory concentration (MIC) turned out to be 319 µg/mL (≈ 817 µM).
As to `CCCCP(=O)(OCC)OCN1C(=O)c2ccccc2C1=O` (stereo not drawn), the outcome in assay [2] was inactive.
Take `CCCCP(=O)(OCC)OCCN1C(=O)c2ccccc2C1=O` (stereo not drawn): in assay [2], the MIC is 406 µg/mL (≈ 1200 µM).
The molecule `CCCCCCCCCP(=O)(OCC)OCN1C(=O)c2ccccc2C1=O` (stereo not drawn) yielded a minimum inhibitory concentration (MIC) in assay [2] of 84.5 µg/mL (≈ 214 µM). This MIC lies about 4.8-fold lower than the previous one.
As to `CCCCP(=O)(OCC)OCc1ccccc1Oc1ccccc1` (stereo not drawn), the half-maximal inhibitory concentration (IC50) in assay [1] was 2 µM. In addition, in assay [2], the MIC worked out at 249 µg/mL (≈ 714 µM).
Consider `CCOP(=O)(O)CCCCN1C(=O)c2ccccc2C1=O`, for which the IC50 in assay [1] came to 110 µM.
Take `CCCCCCCCCP(=O)(OCC)OCCN1C(=O)c2ccccc2C1=O` (stereo not drawn): the result in assay [2] was inactive.
Regarding `CCCCCCCCCCCCCCP(=O)(OCC)OCc1ccccc1Oc1ccccc1` (stereo not drawn), the IC50 in assay [1] was 862 µM.
As to `CCCCCCCP(=O)(OCC)OCN1C(=O)c2ccccc2C1=O` (stereo not drawn), in assay [2], the result was inactive.
Consider `CCCCCCP(=O)(OCC)OCc1cc(OC)c(OC)c(OC)c1` (stereo not drawn), for which the IC50 in assay [1] came to 102 µM.
Take `CCCCCCCCCP(=O)(OCC)OCc1ccccc1Oc1ccccc1` (stereo not drawn): the half-maximal inhibitory concentration (IC50) in assay [1] worked out at 14.8 µM. Also, the minimal inhibitory concentration (MIC) in assay [2] is 188 µg/mL (≈ 450 µM).
